biological target: T1, human orexin-2 (hOX2) receptor (Homo sapiens, UniProt O43614); experiment: Intracellular Ca2+ mobilization assay (FLIPR), CHO(dHFr-) cells expressing hOX2, orexin-A as agonist; assay type: cell-based; details: antagonist Kb=IC50/(1+[A]/EC50); orexin-A at EC80; CHO(dHFr-)-OX2R cells; antagonist applied 25 min before agonist
T1 construct: expressed in transfected cells
T1 sequence (O43614 1-444): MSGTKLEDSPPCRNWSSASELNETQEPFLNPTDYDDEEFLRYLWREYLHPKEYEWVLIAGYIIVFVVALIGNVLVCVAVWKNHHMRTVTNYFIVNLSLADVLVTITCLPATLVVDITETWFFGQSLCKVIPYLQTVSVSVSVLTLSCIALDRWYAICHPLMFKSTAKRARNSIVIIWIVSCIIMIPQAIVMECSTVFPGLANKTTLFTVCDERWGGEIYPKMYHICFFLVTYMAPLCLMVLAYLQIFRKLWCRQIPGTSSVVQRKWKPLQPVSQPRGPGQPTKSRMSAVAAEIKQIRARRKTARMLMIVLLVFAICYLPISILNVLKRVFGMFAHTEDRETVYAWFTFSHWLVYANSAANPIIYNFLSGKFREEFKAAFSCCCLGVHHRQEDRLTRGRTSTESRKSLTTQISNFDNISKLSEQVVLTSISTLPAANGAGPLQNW
In short: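 Cells loaded with 4 μM Fluo-4 AM (1 h, 37° C) in HBSS/20 mM HEPES/2.5 mM probenecid; antagonists (11 concentrations, 0.0001-10 μM) added 25 min at 37° C before orexin-A at its daily-determined EC80. Peak fluorescence minus basal fitted to Hill equation for IC50; Kb=IC50/(1+[A]/EC50).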

Compound | Kb
O=C(c1ccccc1OC(F)(F)F)N1CC[C@@H](Nc2cnc3cc(F)c(F)cc3n2)C1 [Example 166, [(R)-3-(6,7-Difluoro-quinoxalin-2-ylamino)-pyrrolidin-1-yl]-(2-trifluoromethoxy-phenyl)-methanone] | 0.009 µM
O=C(c1ccccc1OC(F)(F)C(F)F)N1CC[C@@H](Nc2cnc3cc(F)c(F)cc3n2)C1 [Example 167, [(R)-3-(6,7-Difluoro-quinoxalin-2-ylamino)-pyrrolidin-1-yl]-[2-(1,1,2,2-tetrafluoro-ethoxy)-phenyl]-methanone] | 0.001 µM
Cc1onc(-c2ccccc2)c1C(=O)N1CC[C@@H](Nc2cnc3cc(F)c(F)cc3n2)C1 [Example 168, [(R)-3-(6,7-Difluoro-quinoxalin-2-ylamino)-pyrrolidin-1-yl]-(5-methyl-3-phenyl-isoxazol-4-yl)-methanone] | 0.0038 µM
Cc1noc(-c2ccccc2C(=O)N2CC[C@@H](Nc3cnc4cc(F)c(F)cc4n3)C2)n1 [Example 169, [(R)-3-(6,7-Difluoro-quinoxalin-2-ylamino)-pyrrolidin-1-yl]-[2-(3-methyl-[1,2,4]oxadiazol-5-yl)-phenyl]-methanone] | 0.0021 µM
Cc1ccc(Cl)c(C(=O)N2CC[C@@H](Nc3cnc4cc(F)c(F)cc4n3)C2)c1 [Example 170, (2-Chloro-5-methyl-phenyl)-[(R)-3-(6,7-difluoro-quinoxalin-2-ylamino)-pyrrolidin-1-yl]-methanone] | 0.0129 µM
COc1ccc(C)cc1C(=O)N1CC[C@@H](Nc2cnc3cc(F)c(F)cc3n2)C1 [Example 171, [(R)-3-(6,7-Difluoro-quinoxalin-2-ylamino)-pyrrolidin-1-yl]-(2-methoxy-5-methyl-phenyl)-methanone] | 0.0245 µM
Cc1nc(C(=O)N2CC[C@@H](Nc3cnc4cc(F)c(F)cc4n3)C2)c(-c2ccccc2)s1 [Example 172, [(R)-3-(6,7-Difluoro-quinoxalin-2-ylamino)-pyrrolidin-1-yl]-(2-methyl-5-phenyl-thiazol-4-yl)-methanone] | 0.0032 µM
O=C(c1ccccc1OC(F)(F)C(F)F)N1CC[C@@H](Nc2cnc3cc(Cl)ccc3n2)C1 [Example 175, [(R)-3-(6-Chloro-quinoxalin-2-ylamino)-pyrrolidin-1-yl]-[2-(1,1,2,2-tetrafluoro-ethoxy)-phenyl]-methanone] | 0.0187 µM
Cc1ccc(C(F)(F)F)c(C(=O)N2CC[C@@H](Nc3cnc4cc(Cl)ccc4n3)C2)c1 [Example 176, [(R)-3-(6-Chloro-quinoxalin-2-ylamino)-pyrrolidin-1-yl]-(5-methyl-2-trifluoromethyl-phenyl)-methanone] | 0.014 µM
Cc1onc(-c2ccccc2)c1C(=O)N1CC[C@@H](Nc2cnc3cc(Cl)ccc3n2)C1 [Example 177, [(R)-3-(6-Chloro-quinoxalin-2-ylamino)-pyrrolidin-1-yl]-(5-methyl-3-phenyl-isoxazol-4-yl)-methanone] | 0.0423 µM
Cc1noc(-c2ccccc2C(=O)N2CC[C@@H](Nc3cnc4cc(Cl)ccc4n3)C2)n1 [Example 178, [(R)-3-(6-Chloro-quinoxalin-2-ylamino)-pyrrolidin-1-yl]-[2-(3-methyl-[1,2,4]oxadiazol-5-yl)-phenyl]-methanone] | 0.0244 µM
Cc1nc(C(=O)N2CC[C@@H](Nc3cnc4cc(Cl)ccc4n3)C2)c(-c2ccccc2)s1 [Example 181, [(R)-3-(6-Chloro-quinoxalin-2-ylamino)-pyrrolidin-1-yl]-(2-methyl-5-phenyl-thiazol-4-yl)-methanone] | 0.028 µM

Second part, the molecule after the results:

Kb | Compound
0.027 µM | O=C(c1ccccc1C(F)(F)F)N1CC[C@@H](Nc2cnc3ccccc3n2)C1 [Example 182, [(R)-3-(Quinoxalin-2-ylamino)-pyrrolidin-1-yl]-(2-trifluoromethyl-phenyl)-methanone]
0.02 µM | O=C(c1ccccc1OC(F)(F)F)N1CC[C@@H](Nc2cnc3ccccc3n2)C1 [Example 183, [(R)-3-(Quinoxalin-2-ylamino)-pyrrolidin-1-yl]-(2-trifluoromethoxy-phenyl)-methanone]
0.0021 µM | O=C(c1ccccc1OC(F)(F)C(F)F)N1CC[C@@H](Nc2cnc3ccccc3n2)C1 [Example 184, [(R)-3-(Quinoxalin-2-ylamino)-pyrrolidin-1-yl]-[2-(1,1,2,2-tetrafluoro-ethoxy)-phenyl]-methanone]
0.0075 µM | Cc1ccc(C(F)(F)F)c(C(=O)N2CC[C@@H](Nc3cnc4ccccc4n3)C2)c1 [Example 185, (5-Methyl-2-trifluoromethyl-phenyl)-[(R)-3-(quinoxalin-2-ylamino)-pyrrolidin-1-yl]-methanone]
0.028 µM | Cc1nc(C(=O)N2CC[C@@H](Nc3cnc4ccccc4n3)C2)c(-c2ccccc2)s1 [Example 189, (2-Methyl-5-phenyl-thiazol-4-yl)-[(R)-3-(quinoxalin-2-ylamino)-pyrrolidin-1-yl]-methanone]
0.0324 µM | O=C(c1ccccc1OC(F)(F)C(F)F)N1CC[C@@H](Nc2cnc3ccc(Cl)cc3n2)C1 [Example 192, [(R)-3-(7-Chloro-quinoxalin-2-ylamino)-pyrrolidin-1-yl]-[2-(1,1,2,2-tetrafluoro-ethoxy)-phenyl]-methanone]
0.0073 µM | Cc1ccc(C(F)(F)F)c(C(=O)N2CC[C@@H](Nc3ccnc(-c4ccccc4)n3)C2)c1 [Example 200, (5-Methyl-2-trifluoromethyl-phenyl)-[(R)-3-(2-phenyl-pyrimidin-4-ylamino)-pyrrolidin-1-yl]-methanone]
0.0046 µM | Cc1ccc(C(F)(F)F)c(C(=O)N2CC[C@@H](Nc3nc4cc(F)c(F)cc4s3)C2)c1 [Example 202, [(R)-3-(5,6-Difluoro-benzothiazol-2-ylamino)-pyrrolidin-1-yl]-(5-methyl-2-trifluoromethyl-phenyl)-methanone]
0.008 µM | Cc1ccc(C(F)(F)F)c(C(=O)N2CC[C@@H](Nc3nc4c(Cl)cccc4s3)C2)c1 [Example 203]
0.0052 µM | Cc1ccc(C(F)(F)F)c(C(=O)N2CC[C@@H](Nc3cnc4cc(C(C)(C)C)ccc4n3)C2)c1 [Example 204]
0.0046 µM | Cc1ccc(C(F)(F)F)c(C(=O)N2CC[C@@H](Nc3cnc4cc(F)ccc4n3)C2)c1 [Example 207]
0.0086 µM | Cc1ccc(C(F)(F)F)c(C(=O)N2CC[C@@H](Nc3cnc4cc(C)c(Cl)cc4n3)C2)c1 [Example 212]
0.0371 µM | Cc1ccc(C(F)(F)F)c(C(=O)N2CC[C@@H](Nc3cnc4cc(Cl)c(C)cc4n3)C2)c1 [Example 213]

From patent US7897627B2, “Heteroaryl derivatives as orexin receptor antagonists” (Hoffmann-La Roche Inc., priority 2007, dated 2011)
